In patent publication US4125500A, “Cyclic phosphites of sugar alcohols and polymers stabilized therewith” (Hoechst Aktiengesellschaft, priority 1976, dated 1978):

Experiments:
[1] = stability to hydrolysis (boiling in deionized water, titration of liberated phosphorous acid); type: physicochemical
Description: The stability to hydrolysis was tested according to the process disclosed in DT-OS 2,144,181, pages 7/8. 5.0 g each of the respective phosphite were boiled for 20 and 60 minutes in 100 ml of deionized water. The mixture was then allowed to cool, filtered to remove residues, if any, and in the filtrate the liberated phosphorous acid was titrated with 0.1N KOH against bromophenol blue.
In the following table is indicated the degree of hydrolysis determined under the specified conditions as quotient of the actual consumption of KOH and the theoretically possible consumption with a complete hydrolysis.

[2] = static heat stability (furnace stability) in PVC, time until black coloration; conditions: heating cabinet with air circulation, 0.5 part phosphite
Description: (§1) The parts in the following description are parts by weight.
(§2) Each time 100 parts of a mass polyvinyl chloride having a K value of 60 were intimately mixed with
0.2 part of 2-phenyl-indole,
3.0 parts of epoxidized soybean oil
0.3 part of stearyl stearate
0.5 part of glycerol monostearate and
(§3) 0.5 part of the respective phosphite of the invention.
In order to measure the static heat stability (furnace stability) a rough sheet was prepared as described above and the sheet was rolled for a further 10 minutes at 180° C. Flat samples having a diameter of about 30 mm were punched out of the rough sheet removed from the mill and having a thickness of about 0.5 mm, the samples were wrapped in aluminum foil and heated to 180° C. in a heating cabinet with air circulation. At intervals of 10 minutes each a sample was taken from the cabinet and the color thereof was compared with that of the color chart.

[3] = dynamic heat stability (rolling stability) in PVC, discoloration of rough sheet; conditions: 180° C, two roll mill, 0.5 part phosphite
Description: as §1, §2
0.2 part of 2-phenyl-indole,
3.0 parts of epoxidized soybean oil
0.3 part of stearyl stearate
0.5 part of glycerol monostearate and
as §3
To measure the dynamic heat stability (rolling stability) the mixtures were rolled on a two roll mill at 180° C. and with 20 revolutions per minute. At intervals of 10 minutes samples were taken from the rough sheet and the color of the samples was compared with the colors of a proper color chart. Rolling was continued until the rough sheet had turned black.
In the color chart used the individual notes have the following meaning:
4 = dark yellow-brown color

[4] = 20 minutes boiling in deionized water
[5] = 60 minutes boiling in deionized water
[6] = boiling deionized water, 20 min

Compound: CCCCCCCCCCCCCCCCCCOP1OCC2(CO1)COP(OCCCCCCCCCCCCCCCCCC)OC2 (stereo not drawn) [distearyl-pentaerthrityl-diphosphite, distearyl-pentaerythritol diphosphite, reference compound]
- degree of hydrolysis after 20 minutes [1, 4]: 55 % of theory
- degree of hydrolysis after 60 minutes [1, 5]: 68 % of theory
- static (furnace) stability, black coloration at 180° C after [2]: 50 '
- dynamic (rolling) stability, discoloration of rough sheet after a rolling time of 10' [3]: 2-3
- dynamic (rolling) stability, discoloration of rough sheet after a rolling time of 20' [3]: 2-3
- dynamic (rolling) stability, discoloration of rough sheet after a rolling time of 30' [3]: 3
- dynamic (rolling) stability, discoloration of rough sheet after a rolling time of 40' [3]: 3
- dynamic (rolling) stability, discoloration of rough sheet after a rolling time of 50' [3]: 4
- dynamic (rolling) stability, discoloration of rough sheet after a rolling time of 60' [3]: 5

Compound: c1ccc(OP(Oc2ccccc2)Oc2ccccc2)cc1 [triphenyl phosphite, reference compound]
- degree of hydrolysis after 20 minutes [1, 4]: 84 % of theory
- degree of hydrolysis after 60 minutes [1, 5]: 100 % of theory
- static (furnace) stability, black coloration at 180° C after [2]: 50 '
- dynamic (rolling) stability, discoloration of rough sheet after a rolling time of 10' [3]: 1
- dynamic (rolling) stability, discoloration of rough sheet after a rolling time of 20' [3]: 2
- dynamic (rolling) stability, discoloration of rough sheet after a rolling time of 30' [3]: 2-3
- dynamic (rolling) stability, discoloration of rough sheet after a rolling time of 40' [3]: 5

Compound: Di-behenyl-erythrityl diphosphite [Example 8]
- degree of hydrolysis after 20 minutes [1, 6]: 7 % of theory
- degree of hydrolysis after 60 minutes ([1]; boiling deionized water, 1 h): 11 % of theory
- static (furnace) stability, black coloration at 180° C after [2]: 60 '
- dynamic (rolling) stability, discoloration of rough sheet after a rolling time of 10' [3]: 1
- dynamic (rolling) stability, discoloration of rough sheet after a rolling time of 20' [3]: 1-2
- dynamic (rolling) stability, discoloration of rough sheet after a rolling time of 30' [3]: 1-2
- dynamic (rolling) stability, discoloration of rough sheet after a rolling time of 40' [3]: 2
- dynamic (rolling) stability, discoloration of rough sheet after a rolling time of 50' [3]: 3
- dynamic (rolling) stability, discoloration of rough sheet after a rolling time of 60' [3]: 4
- dynamic (rolling) stability, discoloration of rough sheet after a rolling time of 70' [3]: 5

Compound: Tri-behenyl-mannityl triphosphite [Example 5]
- degree of hydrolysis after 20 minutes [1, 6]: 7 % of theory
- degree of hydrolysis after 60 minutes ([1]; boiling deionized water, 1 h): 23 % of theory
- dynamic (rolling) stability, discoloration of rough sheet after a rolling time of 10' [3]: 1
- dynamic (rolling) stability, discoloration of rough sheet after a rolling time of 20' [3]: 1-2
- dynamic (rolling) stability, discoloration of rough sheet after a rolling time of 30' [3]: 2
- dynamic (rolling) stability, discoloration of rough sheet after a rolling time of 40' [3]: 2
- dynamic (rolling) stability, discoloration of rough sheet after a rolling time of 50' [3]: 3
- dynamic (rolling) stability, discoloration of rough sheet after a rolling time of 60' [3]: 3
- dynamic (rolling) stability, discoloration of rough sheet after a rolling time of 70' [3]: 4
- dynamic (rolling) stability, discoloration of rough sheet after a rolling time of 80' [3]: 5

Compound: Tri-behenyl-sorbityl triphosphite [Example 4]
- degree of hydrolysis after 20 minutes [1, 6]: 10 % of theory
- dynamic (rolling) stability, discoloration of rough sheet after a rolling time of 10' [3]: 1
- dynamic (rolling) stability, discoloration of rough sheet after a rolling time of 20' [3]: 1-2
- dynamic (rolling) stability, discoloration of rough sheet after a rolling time of 30' [3]: 2
- dynamic (rolling) stability, discoloration of rough sheet after a rolling time of 40' [3]: 2
- dynamic (rolling) stability, discoloration of rough sheet after a rolling time of 50' [3]: 3
- dynamic (rolling) stability, discoloration of rough sheet after a rolling time of 60' [3]: 3
- dynamic (rolling) stability, discoloration of rough sheet after a rolling time of 70' [3]: 4
- dynamic (rolling) stability, discoloration of rough sheet after a rolling time of 80' [3]: 5

Compound: Tri-stearyl-dulcityl-triphosphite [Example 3]
- static (furnace) stability, black coloration at 180° C after [2]: 60 '
- dynamic (rolling) stability, discoloration of rough sheet after a rolling time of 10' [3]: 1
- dynamic (rolling) stability, discoloration of rough sheet after a rolling time of 20' [3]: 1-2
- dynamic (rolling) stability, discoloration of rough sheet after a rolling time of 30' [3]: 2
- dynamic (rolling) stability, discoloration of rough sheet after a rolling time of 40' [3]: 3
- dynamic (rolling) stability, discoloration of rough sheet after a rolling time of 50' [3]: 4
- dynamic (rolling) stability, discoloration of rough sheet after a rolling time of 60' [3]: 5

Compound: Tri-stearyl-mannityl-triphosphite [Example 2]
- degree of hydrolysis after 20 minutes [1, 6]: 5 % of theory
- degree of hydrolysis after 60 minutes ([1]; boiling deionized water, 1 h): 10 % of theory
- dynamic (rolling) stability, discoloration of rough sheet after a rolling time of 10' [3]: 1
- dynamic (rolling) stability, discoloration of rough sheet after a rolling time of 20' [3]: 1-2
- dynamic (rolling) stability, discoloration of rough sheet after a rolling time of 30' [3]: 2
- dynamic (rolling) stability, discoloration of rough sheet after a rolling time of 40' [3]: 2-3
- dynamic (rolling) stability, discoloration of rough sheet after a rolling time of 50' [3]: 3
- dynamic (rolling) stability, discoloration of rough sheet after a rolling time of 60' [3]: 3
- dynamic (rolling) stability, discoloration of rough sheet after a rolling time of 70' [3]: 4
- dynamic (rolling) stability, discoloration of rough sheet after a rolling time of 80' [3]: 4

Compound: Tri-stearyl-sorbityl triphosphite [Example 1]
- degree of hydrolysis after 20 minutes [1, 6]: 7 % of theory
- degree of hydrolysis after 60 minutes ([1]; boiling deionized water, 1 h): 17 % of theory
- dynamic (rolling) stability, discoloration of rough sheet after a rolling time of 10' [3]: 1
- dynamic (rolling) stability, discoloration of rough sheet after a rolling time of 20' [3]: 1-2
- dynamic (rolling) stability, discoloration of rough sheet after a rolling time of 30' [3]: 2
- dynamic (rolling) stability, discoloration of rough sheet after a rolling time of 40' [3]: 2-3
- dynamic (rolling) stability, discoloration of rough sheet after a rolling time of 50' [3]: 3
- dynamic (rolling) stability, discoloration of rough sheet after a rolling time of 60' [3]: 3
- dynamic (rolling) stability, discoloration of rough sheet after a rolling time of 70' [3]: 4
- dynamic (rolling) stability, discoloration of rough sheet after a rolling time of 80' [3]: 4

Compound: Tristearyl-sorbityl diphosphite monophosphate [Example 25]
- degree of hydrolysis after 20 minutes [1, 4]: 9 % of theory

Compound: distearyl-monododecyl-mercapto-sorbityl triphosphite [Example 23]
- static (furnace) stability, black coloration at 180° C after [2]: 60 '
- dynamic (rolling) stability, discoloration of rough sheet after a rolling time of 10' [3]: 2
- dynamic (rolling) stability, discoloration of rough sheet after a rolling time of 20' [3]: 3
- dynamic (rolling) stability, discoloration of rough sheet after a rolling time of 30' [3]: 3
- dynamic (rolling) stability, discoloration of rough sheet after a rolling time of 40' [3]: 3
- dynamic (rolling) stability, discoloration of rough sheet after a rolling time of 50' [3]: 3-4
- dynamic (rolling) stability, discoloration of rough sheet after a rolling time of 60' [3]: 4
- dynamic (rolling) stability, discoloration of rough sheet after a rolling time of 70' [3]: 5

Compound: distearyl-sorbityl diphosphite [Example 10]
- static (furnace) stability, black coloration at 180° C after [2]: 60 '
- dynamic (rolling) stability, discoloration of rough sheet after a rolling time of 10' [3]: 1
- dynamic (rolling) stability, discoloration of rough sheet after a rolling time of 20' [3]: 1-2
- dynamic (rolling) stability, discoloration of rough sheet after a rolling time of 30' [3]: 2
- dynamic (rolling) stability, discoloration of rough sheet after a rolling time of 40' [3]: 3
- dynamic (rolling) stability, discoloration of rough sheet after a rolling time of 50' [3]: 4
- dynamic (rolling) stability, discoloration of rough sheet after a rolling time of 60' [3]: 5

Compound: trisnonylphenyl phosphite [reference compound]
- degree of hydrolysis after 20 minutes [1, 4]: 57 % of theory
- degree of hydrolysis after 60 minutes [1, 5]: 92 % of theory
- static (furnace) stability, black coloration at 180° C after [2]: 40 '
- dynamic (rolling) stability, discoloration of rough sheet after a rolling time of 10' [3]: 1
- dynamic (rolling) stability, discoloration of rough sheet after a rolling time of 20' [3]: 2
- dynamic (rolling) stability, discoloration of rough sheet after a rolling time of 30' [3]: 2-3
- dynamic (rolling) stability, discoloration of rough sheet after a rolling time of 40' [3]: 3
- dynamic (rolling) stability, discoloration of rough sheet after a rolling time of 50' [3]: 5
